According to US20200275665A1, “PREPARATION COMPRISING AT LEAST ONE CHEMICAL FUNGICIDE AND A MIXTURE COMPRISING AUREOBASIDIUM PULLULANS STRAINS” (Erber Aktiengesellschaft, priority 2017, published 2020):
Several values for one entry are separate records, joined by “and”; a condition that tells them apart may be missing. Equal entries are not always repeated.

Legend:
[1] = test system: Botrytis cinerea Bc97 (DSM 32469); experiment: Apple test (wound inoculation), Botrytis cinerea Bc97; assay type: in vivo; settings: apples Jonagold Honsel, 20° C., 6 days; Aureobasidium 5×10^6 cells/ml total; fludioxonil 0.125 g/l, cyprodinil 0.1875 g/l
Description: The effect of the Aureobasidium pullulans strains AP 241 (DSM 32467), AP 268 (DSM 32468), DSM 14940 and DSM 14941 (individually or in combination), together with the chemical fungicides cyprodinil and fludioxonil (individually or in combination), against the fungal plant pathogens Botrytis and Neofabreaea was determined in an apple test. 12 untreated apples of the same cultivar, having a uniform degree of maturity and size, were used for each treatment. Prior to the test, the apples were surface-sterilized for three minutes in 70% ethanol and dried in a clean bench. Four wounds, having a wound diameter of 5 mm, were made at equal distances in each apple in the equatorial plane between the calyx and the stem using a sterile pipette tip. […]
(§1) The effectiveness of the inhibition of the pathogen was calculated for test solutions 2 to 4 from the diameters of the areas of decay, which were measured at the end of the storage period. […]
(§2) According to the Colby formula (S. R. Colby “Calculating synergistic and antagonistic responses of herbicide combinations,” Weeds 15, pages 20 to 22, 1967), expected values (E) of the effect of the combination of Aureobasidium and the chemical fungicide (test solution 4) were calculated from the effectiveness (WG) figures of the individual components in test solutions 2 and 3 according to the following formula: […]

[2] = test system: Pezicula malicorticis 160622 (DSM 62715); experiment: Apple test (wound inoculation), Pezicula malicorticis 160622; assay type: in vivo; settings: apples Elstar Fuchshof, 20° C., 16 days; Aureobasidium overall 1×10^7 cells/ml; fludioxonil 0.125 g/l, cyprodinil 0.1875 g/l
Description: The effect of the Aureobasidium pullulans strains AP 241 (DSM 32467), AP 268 (DSM 32468), DSM 14940 and DSM 14941 (individually or in combination), together with the chemical fungicides cyprodinil and fludioxonil (individually or in combination), against the fungal plant pathogens Botrytis and Neofabreaea was determined in an apple test. 12 untreated apples of the same cultivar, having a uniform degree of maturity and size, were used for each treatment. Prior to the test, the apples were surface-sterilized for three minutes in 70% ethanol and dried in a clean bench. Four wounds, having a wound diameter of 5 mm, were made at equal distances in each apple in the equatorial plane between the calyx and the stem using a sterile pipette tip. Immediately after the creation of the four artificial wounds, 10 μl of different test solutions (preparations) was applied to each apple. Thereafter, the apples were stored. An area of decay formed around the wounds, the diameter of the area representing a measure of the spread of the infection with the pathogen. For the evaluation, the diameters of the punctures of 0.5 cm each were deducted from the diameter of the decay area.
The 4 test solutions that were each placed in one of the 4 wounds of each apple were: • 1. Pathogen (negative control) • 2. Pathogen and Aureobasidium pullulans (individually or in combination) • 3. Pathogen and chemical fungicide (individually or in combination) • 4. Pathogen and Aureobasidium pullulans (individually or in combination) and chemical fungicide (individually or in combination)
as §1, §2
If the measured effectiveness of the combination of the Aureobasidium pullulans strains and the chemical fungicide (test solution 4) is greater than the calculated expected value (E), this is referred to as a synergistic effect (the individual components potentiate each other in an over-additive effect). The synergism factor is a measure of the synergistic effect and was calculated as the quotient from the effectiveness of the combination of the substances or components (test solution 4) and the calculated expected value (E). […]

Row | Compound | Mean diameter of decay areas [1] | Effectiveness (decrease in diameter of decay area vs. negative control) [2] | Mean diameter of decay areas [2]
1 | Cc1cc(C2CC2)nc(Nc2ccccc2)n1 [cyprodinil] | 2.80 cm and 3.14 cm and 2.21 cm and 2.52 cm and 3.63 cm and 3.51 cm and 3.38 cm | 17.0% | 1.61 cm
2 | N#Cc1c[nH]cc1-c1cccc2c1OC(F)(F)O2 [fludioxonil] | – | −3.8% | 1.91 cm
